Data taken from patent US8471035B1, “Two-photon absorbing arylamine-endcapped and dialkylfluorene-bridged benzobisthiazole compounds with high oleophilicity” (The United States of America as represented by the …, priority 2011, dated 2013).

Assays:
[1] = Solubility in toluene at room temperature; type: physicochemical
Excerpt: In addition, these chromophores are found to be even more soluble in aromatic hydrocarbon solvents as indicated by the higher solubilities of AF388-118 (≧29 wt %) and AF388-312 (≧67 wt %) in toluene.

[2] = Solubility in hexane at room temperature (AF-388 series); type: physicochemical; details: for solubility in hexane, % wt/vol. / solubility in hexane, % wt/wt: 24° C.; for amount that remained completely dissolved in hexane for months: ambient conditions

Structure (SMILES)	concentration of toluene solution that remained homogenous [1] [M]	solubility in toluene [1] [wt %]	concentration of toluene solution that solidified at room temperature after 72 hours ([1]; 72 hours) [M]	solubility in hexane, % wt/vol. [2] [% wt/vol.]	solubility in hexane, % wt/wt [2] [% wt/wt]	amount that remained completely dissolved in hexane for months [2] [wt %]
CC(C)CCCC(C)CCC1(CCC(C)CCCC(C)C)c2cc(-c3nc4cc5sc(-c6ccc7c(c6)C(CCC(C)CCCC(C)C)(CCC(C)CCCC(C)C)c6cc(N(c8ccccc8)c8ccccc8)ccc6-7)nc5cc4s3)ccc2-c2ccc(N(c3ccccc3)c3ccccc3)cc21 (stereo not shown) [AF-388-118]	0.24	≥ 29	0.34	0.41	0.61	
CC(C)CCCC(C)CCCC(C)CCC1(CCC(C)CCCC(C)CCCC(C)C)c2cc(-c3nc4cc5sc(-c6ccc7c(c6)C(CCC(C)CCCC(C)CCCC(C)C)(CCC(C)CCCC(C)CCCC(C)C)c6cc(N(c8ccccc8)c8ccccc8)ccc6-7)nc5cc4s3)ccc2-c2ccc(N(c3ccccc3)c3ccccc3)cc21 (stereo not shown) [AF-388-312, 2,6-Bis[7-(diphenylimino)-9,9-bis(3,7,1′-trimethyldodecylfluoren-2-yl)]-benzobisthiazole]	0.34	≥ 67		20.2	30.4	≥ 30
CC(C)CCCC(C)CCCC(C)CCCC(C)CCC1(CCC(C)CCCC(C)CCCC(C)CCCC(C)C)c2cc(-c3nc4cc5sc(-c6ccc7c(c6)C(CCC(C)CCCC(C)CCCC(C)CCCC(C)C)(CCC(C)CCCC(C)CCCC(C)CCCC(C)C)c6cc(N(c8ccccc8)c8ccccc8)ccc6-7)nc5cc4s3)ccc2-c2ccc(N(c3ccccc3)c3ccccc3)cc21 (stereo not shown) [AF-388-416, 2,6-Bis[7-(diphenylimino)-9,9-bis(3,7,11,15-tetramethylhexadecyl)fluoren-2-yl]-benzobisthiazole]				36.3	51.3	≥ 51
